Reference: patent publication US12077501B2, “Compounds and compositions for intracellular delivery of agents” (ModernaTX, Inc., priority 2017, dated 2024)

Experiments:
[1] = Particle size and polydispersity index of nanoparticle compositions (Zetasizer Nano ZS); assay type: physicochemical; conditions: summary of Table 1
Procedure: A Zetasizer Nano ZS (Malvem Instruments Ltd, Malvem, Worcestershire, UK) can be used to determine the particle size, the polydispersity index (PDI) and the zeta potential of the nanoparticle compositions in 1×PBS in determining particle size and 15 mM PBS in determining zeta potential.

[2] = Encapsulation efficiency of RNA (QUANT-IT RIBOGREEN RNA assay); assay type: physicochemical; conditions: summary of Table 1
Procedure: For nanoparticle compositions including an RNA, a QUANT-IT™ RIBOGREEN® RNA assay (Invitrogen Corporation Carlsbad, CA) can be used to evaluate the encapsulation of an RNA by the nanoparticle composition. The samples are diluted to a concentration of approximately 5 μg/mL in a TE buffer solution (10 mM Tris-HCl, 1 mM EDTA, pH 7.5). 50 μL of the diluted samples are transferred to a polystyrene 96 well plate and either 50 μL of TE buffer or 50 μL of a 2% Triton X-100 solution is added to the wells. The plate is incubated at a temperature of 37° C. for 15 minutes. The RIBOGREEN® reagent is diluted 1:100 in TE buffer, and 100 μL of this solution is added to each well. The fluorescence intensity can be measured using a fluorescence plate reader (Wallac Victor 1420 Multilablel Counter; Perkin Elmer, Waltham, MA) at an excitation wavelength of, for example, about 480 nm and an emission wavelength of, for example, about 520 nm. The fluorescence values of the reagent blank are subtracted from that of each of the samples and the percentage of free RNA is determined by dividing the fluorescence intensity of the intact sample (without addition of Triton X-100) by the fluorescence value of the disrupted sample (caused by the addition of Triton X-100).

[3] = pKa of nanoparticle compositions; assay type: physicochemical; conditions: Table 1b
[4] = Lipid clearance: % dose remaining in liver of CD-1 mice; assay type: in vivo; conditions: intravenous, 0.5 mg/kg, CD-1 mouse, Table 8a
From the text: In contrast, hEPO expression in rats induced by administration of a nanoparticle composition including a compound according to one of formulae (I), (Ia1)-(Ia6), (Ib), (II), (IIa), (III), and (IIIa) was substantially […] than that measured for MC3. […] Tables 7c and 7d show additional protein expressions and clearance data from compositions with various compounds disclosed herein as compared to with MC3. Tables 7e, 7f and 7g show hEPO expression data in CD-1 mice at a dose of 0.5 mpk.

SMILES | pKa [3] | % Dose Remaining 6 hr [4] | % Dose Remaining 24 hr [4] | other results
CCCCCCCCCCCCN(CCCCCCCCCCCC)CCN1CCN(CCN(CCCCCCCCCCCC)C(=O)CN(CCCCCCCCCCCC)CCCCCCCCCCCC)CC1 [Compound 1, 2-(Didodecylamino)-N-(2-(4-(2-(didodecylamino)ethyl)piperazin-1-yl)ethyl)-N-dodecylacetamide] | – | – | – | particle size ranking amongst the compositions of Tables 1 and 1a [1]: largest particles; encapsulation efficiency ranking amongst the compositions of Tables 1 and 1a [2]: lowest
CCCCC/C=C\CCCCCN(CCCCCCCCCCCC)CCN1CCN(CCN(CCCCCCCCCCCC)CCN(CCCCCCCCCCCC)CCCCCCCCCCCC)CC1 [Compound 24, (Z)—N^1-(2-(4-(2-(Dodec-6-en-1-yl(dodecyl)amino)ethyl)piperazin-1-yl)ethyl)-N^1,N^2,N^2-tridodecylethane-1,2-diamine] | – | – | – | encapsulation efficiency ranking amongst the compositions of Tables 1 and 1a [2]: lowest
CCCCC/C=C\C/C=C\CCCCCCCCN(CCCCCCCC/C=C\C/C=C\CCCCC)CCN(CCCCCCCC/C=C\C/C=C\CCCCC)CCN1CCN(CCN(CCCCCCCCCCCC)CCCCCCCCCCCC)CC1 [Compound 34, N^1-(2-(4-(2-(Didodecylamino)ethyl)piperazin-1-yl)ethyl)-N^1,N^2,N^2-tri((9Z,12Z)-octadeca-9,12-dien-1-yl)ethane-1,2-diamine] | – | – | – | particle size ranking amongst the compositions of Tables 1 and 1a [1]: smallest particles
CCCCCCCCCN(CCCCCCCCC)CCN(CCCCCCCCC)CCN1CCNCC1 [Compound 36, N^1,N^1,N^2-Trinonyl-N^2-(2-(piperazin-1-yl)ethyl)ethane-1,2-diamine] | – | – | – | encapsulation efficiency ranking amongst the compositions of Tables 1 and 1a [2]: highest
CCCCCCCCCCCCN(CCCCCCCCCCCC)CCN(CCCCCCCCCCCC)CCN1CCNCC1 [Compound 37, N^1,N^1,N^2-Tridodecyl-N^2-(2-(piperazin-1-yl)ethyl)ethane-1,2-diamine] | – | – | – | encapsulation efficiency ranking amongst the compositions of Tables 1 and 1a [2]: highest
CCCCCCCC/C=C\CCCCCCCCN(CCCCCCCC/C=C\CCCCCCCC)CCN(CCCCCCCC/C=C\CCCCCCCC)CCN1CCNCC1 [Compound 40, N^1,N^1,N^2-Tri((Z)-octadec-9-en-1-yl)-N^2-(2-(piperazin-1-yl)ethyl)ethane-1,2-diamine] | – | – | – | encapsulation efficiency ranking amongst the compositions of Tables 1 and 1a [2]: highest
CCCCC/C=C\C/C=C\CCCCCCCCN(CCCCCCCC/C=C\C/C=C\CCCCC)CCN(CCCCCCCC/C=C\C/C=C\CCCCC)CCN1CCNCC1 [Compound 41, N^1,N^1,N^2-Tri((9Z,12Z)-octadeca-9,12-dien-1-yl)-N^2-(2-(piperazin-1-yl)ethyl)ethane-1,2-diamine] | – | – | – | encapsulation efficiency ranking amongst the compositions of Tables 1 and 1a [2]: highest
CCCCCCCCCN(CCCCCCCCC)CCN(CCCCCCCCC)CCC1CCN(C(=O)CN(CCCCCCCCC)CCCCCCCCC)CC1 [Compound 50, 2-(Dinonylamino)-1-(4-(2-((2-(dinonylamino)ethyl)(nonyl)amino)ethyl)piperidin-1-yl)ethan-1-one] | – | – | – | particle size ranking amongst the compositions of Tables 1 and 1a [1]: smallest particles
CCCCCCCCCN(CCCCCCCCC)CCN(CCCCCCCCC)CC(=O)N1CCN(C(=O)CN(CCCCCCCCC)CCCCCCC(=O)OCC)CC1 [Compound 53, Ethyl 7-((2-(4-(N-(2-(dinonylamino)ethyl)-N-nonylglycyl)piperazin-1-yl)-2-oxoethyl)(nonyl)amino)heptanoate] | 6.91 | – | – | –
CCCCCCCCCN(CCCCCCCCC)CCN(CCCCCCCCC)CC(=O)N1CCN(C(=O)CN(CCCCCCCCC)CCCCCC(=O)OCCC)CC1 [Compound 54, Propyl 6-((2-(4-(N-(2-(dinonylamino)ethyl)-N-nonylglycyl)piperazin-1-yl)-2-oxoethyl)(nonyl)amino)hexanoate] | 6.88 | – | – | –
CCCCCCCCCN(CCCCCCCCC)CCN(CCCCCCCCC)CC(=O)N1CCN(C(=O)CN(CCCCCCCCC)CCCCC(=O)OCCCC)CC1 [Compound 55, Butyl 5-((2-(4-(N-(2-(dinonylamino)ethyl)-N-nonylglycyl)piperazin-1-yl)-2-oxoethyl)(nonyl)amino)pentanoate] | 6.96 | – | – | –
CCCCCCCCCN(CCCCCCCC(=O)OC)CCC1CCN(C(=O)CN(CCCCCCCCC)CCN(CCCCCCCCC)CCCCCCCCC)CC1 [Compound 57, Methyl 8-((2-(1-(N-(2-(dinonylamino)ethyl)-N-nonylglycyl)piperidin-4-yl)ethyl)(nonyl)amino)octanoate] | 6.73 | – | – | –
CCCCCCCCCN(CCCCCCC(=O)OCC)CCC1CCN(C(=O)CN(CCCCCCCCC)CCN(CCCCCCCCC)CCCCCCCCC)CC1 [Compound 58, Ethyl 7-((2-(1-(N-(2-(dinonylamino)ethyl)-N-nonylglycyl)piperidin-4-yl)ethyl)(nonyl)amino)heptanoate] | 6.7 | – | – | –
CCCCCCCCCN(CCCCCC(=O)OCCC)CCC1CCN(C(=O)CN(CCCCCCCCC)CCN(CCCCCCCCC)CCCCCCCCC)CC1 [Compound 59, Propyl 6-((2-(1-(N-(2-(dinonylamino)ethyl)-N-nonylglycyl)piperidin-4-yl)ethyl)(nonyl)amino)hexanoate] | 6.68 | – | – | –
CCCCCCCCCN(CCCC(=O)OCCCCC)CCC(=O)N1CCN(C(=O)CCN(CCCCCCCCC)CCN(CCCCCCCCC)CCCCCCCCC)CC1 [Compound 62, Pentyl 4-((3-(4-(3-((2-(dinonylamino)ethyl)(nonyl)amino)propanoyl)piperazin-1-yl)-3-oxopropyl)(nonyl)amino)butanoate] | 7.56 | 16.99% | 14.36% | –
CCCCCCCCCN(CCCCCCCCC)CCC1CCN(C(=O)CN(CCCCCCCCC)CCN(CCCCCCCCC)CCCCCCCCC)C1 (stereo not shown) [Compound 69, 2-((2-(Dinonylamino)ethyl)(nonyl)amino)-1-(3-(2-(dinonylamino)ethyl)pyrrolidin-1-yl)ethan-1-one] | 7.01 | 59.21% | 52.03% | –
CCCCCCCCCN(CCCCCCCCC)CCN(CCCCCCCCC)CC(=O)N1CCC(CN(CCCCCCCCC)CCCCCCCCC)C1 (stereo not shown) [Compound 70, 2-((2-(Dinonylamino)ethyl)(nonyl)amino)-1-(3-((dinonylamino)methyl)pyrrolidin-1-yl)ethan-1-one] | 6.75 | 56.30% | 57.20% | –
CCCCCCCCCN(CCCCCCCCC)CCN(CCCCCCCCC)CC(=O)N1CCN(C(=O)CN(CCCC(=O)OCCCCC)CCCC(=O)OCCCCC)CC1 [Compound 72, Dipentyl 4,4′-((2-(4-(N-(2-(dinonylamino)ethyl)-N-nonylglycyl)piperazin-1-yl)-2-oxoethyl)azanediyl)dibutyrate] | 7.19 | – | – | –
CCCCCCCCCN(CCCCCCCCC)CCC1CCCN(C(=O)CN(CCCCCCCCC)CCN(CCCCCCCCC)CCCCCCCCC)C1 (stereo not shown) [Compound 73, 2-((2-(Dinonylamino)ethyl)(nonyl)amino)-1-(3-(2-(dinonylamino)ethyl)piperidin-1-yl)ethan-1-one] | 6.65 | 68.53% | 64.75% | –
CCCCCCCCCN(CCCC(=O)OCCCCC)CCC1CCCN(C(=O)CN(CCCCCCCCC)CCN(CCCCCCCCC)CCCCCCCCC)C1 (stereo not shown) [Compound 80, Pentyl 4-((2-(1-(N-(2-(dinonylamino)ethyl)-N-nonylglycyl)piperidin-3-yl)ethyl)(nonyl)amino)butanoate] | 6.78 | 23.78% | 25.25% | –
CCCCCCCCCN(CCCC(=O)OCCCCC)CCC1CCN(C(=O)CN(CCCCCCCCC)CCN(CCCCCCCCC)CCCCCCCCC)C1 (stereo not shown) [Compound 81, Pentyl 4-((2-(1-(N-(2-(dinonylamino)ethyl)-N-nonylglycyl)pyrrolidin-3-yl)ethyl)(nonyl)amino)butanoate] | 7.22 | 15.28% | 19.27% | –
CCCCCCCCCN(CCCCCCCCC)CCN(CCCCCCCCC)CC(=O)N1CCC(CN(CCCCCCCCC)CCCC(=O)OCCCCC)C1 (stereo not shown) [Compound 82, Pentyl 4-(((1-(N-(2-(dinonylamino)ethyl)-N-nonylglycyl)pyrrolidin-3-yl)methyl)(nonyl)amino)butanoate] | 7.05 | 37.85% | 38.66% | –
